Measurements: patent publication US8968758B2, “Material for forming a multi-level antimicrobial surface coating and its preparation” (The Hong Kong University of Science and Technology …, priority 2008, dated 2015)

Assays:
[1] = tested on: Gram positive and Gram negative bacteria; experiment: Contact-killing on surface coated with composition B at various contact times; format: cell-based, B. subtilis, S. aureus, E. coli; conditions: 10 min contact, without encapsulation
Method: A hundred microliters of 10^7.cm^−3 bacteria cell suspension was placed in contact with the coated surface at ambient condition (23±2° C., 70% R.H.) in a sterilized biological safety cabinet (NuAire, Nu-425-400E). Three sets of runs of five samples each were carried out at the fixed contact times of 1, 5, 10 and 30 min. The samples were immersed into a primary subculture tube containing 20 ml neutralizer for 30 min to stabilize the surviving bacteria cells. The sterile neutralizer solution was freshly prepared by adding 1% (v/v) 0.1 M Na2S2O3 to 600 ml of 0.85% (w/v) normal saline (NaCl, RDH) solution containing 0.1% (v/v) (final concentration) of polyoxyethylenesorbitan monooleate (Tween 80) followed by autoclave at 121° C. for 20 min. A hundred microliters aliquots from the neutralizer were cultured on a TSA plate. The numbers of viable bacteria were counted after incubating the plates for 24 h at 37±0.1° C. The sample was drip-dried and transferred to a second subculture tube containing 20 ml of sterile nutrient broth (Nutrient broth no. 2, Oxoid) for 10 min. A hundred microliters aliquots from the nutrient broth were cultured on a TSA plate. The numbers of viable bacteria were counted after incubating the plates for 24 h at 37±0.1° C.

[2] = tested on: S. aureus; experiment: Kirby-Bauer disk diffusion test; format: cell-based; conditions: wafer coated and dried
Method: Standard Kirby-Bauer disk diffusion test was performed using S. aureus. Sterile TSA plates were evenly inoculated with a loopful (ca. 100 μl) of S. aureus inoculum from the broth culture (ca. 10^6.cm^−3). […] A filter paper coated with 100 μl of 70% ethanol without drying was used as positive control
The Kirby-Bauer disk diffusion test was conducted, a standard antimicrobial test method using impregnated wafers to test whether particular bacteria are susceptible by comparing the area of clearing that surrounds the wafer where bacteria are not capable of growing (called a zone of inhibition).

Compound: [O][Cl+][O-] [chlorine dioxide]
- antimicrobial effect (in words) [1]: ineffective

Compound: ethanol [70% alcohol]
- zone of inhibition [2]: do not show zones of inhibition
